Data: patent US8008452B2, “Phosphorylated Ndr kinase” (Novartis Forschungesstiftung, Zweigniederlassung Friedrich …, priority 2002, dated 2011)
“Also recorded” adds a separate entry of the source.

What was measured:
HA-NDR1 [1] = assay: HA-NDR1 kinase assay on 12CA5 immunoprecipitates from transfected, treated COS-1 cells; assay type: cell-based, human
Description: In some experiments, the cells were treated for 60 min with 1 microM okadaic acid in 0.1% N,N-dimethylformamide (DMF) (Alexis Corp.), 50 microM BAPTA-AM (1,2-bis (o-aminophenoxy) ethane-N,N,N′,N′-tetraacetic acid tetra (acetoxy-methyl)ester) in 0.1% diimethylsulfoxide (DMSO; Sigma), or 20 microM thapsigargin in 0.1% DMSO (Alomone) 24 hours after transfection.
Transfected and treated COS-1 cells were washed once with ice-cold PBS, and harvested by rubber policeman in 1 ml ice-cold PBS containing 1 mM Na3VO4 and 20 mM beta-glycerophosphate before lysis in 500 microliters of IP buffer (20 mM Tris-HCl pH 8.0, 150 mM NaCl, 1% Nonidet P-40, 10% glycerol, 1 mM Na3VO4, 20 mM beta-glycerolphosphate, 1 microM microcystin-LR, 50 mM NaF, 0.5 mM PMSF, 4 microM leupeptin, 1 mM benzamidine, and 1 tablet/10 ml IP of Complete protease inhibitors (Roche)). Lysates were centrifuged at 20 000 g for 20 min and triplicate aliquots (200 microg) of supernatant were precleared with protein A-Sepharose (Amersham Pharmacia Biotech) for 60 min and mixed subsequently for 3 h at 4° C. with 12CA5 antibody prebound to protein A-Sepharose (˜1 microg antibody bound to 2 microl beads). The beads were then washed twice with IP buffer, once for 10 min with IP buffer containing 1 M NaCl, once again for 10 min with IP buffer, and finally twice with 20 mM Tris-HCl pH 7.5 containing 4 microM leupeptin and 1 mM benzamidine. Thereafter, beads were resuspended in 30 microliters buffer containing 20 mM Tris-HCl pH 7.5, 10 mM MgCl2, 1 mM DTT, 100 microM [gamma-^32P]ATP (˜0.1 microCi/microliter), 1 microM cAMP-dependent protein kinase inhibitor peptide PKI (Bachem), 4 microM leupeptin, 1 mM benzamidine, 1 microM microcystin-LR, and 1 mM NDR1 substrate peptide ([…]). After 60 min incubation at 30° C., 15 microliters of supernatant were removed, and phosphate incorporation into the substrate peptide determined as described for GST-NDR1 above.
COS-1 cells expressing either wild type HA-NDR1 or the indicated mutants were treated for 1 h with 1 microM okadaic acid or with solvent alone. HA-tagged NDR kinase variants were then immunoprecipitated (out of 100 microgram of detergent extracts) with 12CA5 monoclonal antibody and assayed for kinase activity by a peptide kinase assay as described above.
Mock-transfected or HA-NDR1-expressing COS-1 cells were treated for 1 h with […], 50 microM BAPTA-AM, and […] or with solvent (0.1% DMF or 0.1% DMSO) alone. 12CA5 immunoprecipitates (out of 100 microgram protein extract) were then assayed using the peptide kinase assay for NDR1 kinase activity.
To test whether hMOB1 plays a role in NDR activation, myc-hMOB1 or the empty vector was cotransfected with HA-NDR1 in COS1 cells and treated with OA. 12CA5 immunoprecipitates were then assayed using the peptide kinase assay for HA-NDR kinase activity. […] GST-MOB and GST respectively was added to immunoprecipitated HA-NDR and kinase reaction were performed. The reactions were resolved on a 10% SDS PAGE and the radioactivity visualised by using a phosphoimager.

HA-NDR1 [2] = assay: Immunodetection of HA-NDR1 phosphorylated on Ser281 or Thr444 from COS-1 cells; assay type: cell-based, human; conditions: for phosphorylation of HA-NDR1 on Ser281: immunoblot with anti-P-S281; for phosphorylation of HA-NDR1 on Thr444: immunoblot with anti-P-T444
Description: Either 1 microgram GST-NDR1 or HA-NDR1 immunoprecipitated from 100 microgram COS-1 detergent extracts as described above was separated on 10% SDS-PAGE and immunoblotted 2 h at RT or overnight at 4° C. with anti-Ser281P antisera (1:1000) in the presence of 50 microg/ml competing unphosphopeptide or anti-Thr444P purified antibody (1:500). Both antibodies were detected with horseradish peroxidase-conjugated donkey anti-rabbit Ig antibody (Amersham biosciences) and developed by ECL (chemiluminescence; Amersham Pharmacia Biotech).
To examine this possibility, extracts from transfected COS-1 cells were analyzed with the anti-Ser281P and anti-Thr444P antisera. Protein extracts (10 microg) from transfected COS-1 cells were immunoblotted with 12CA5 to verify similar expression levels of each HA-NDR1 construct. For the analysis of phosphorylation status, 12CA5-immunoprecipitated HA-NDR1 variants (out of 100 microg protein extract) were analysed by immunoblotting with phosphospecific antibodies directed against P-S281 or P-T444.
Protein extracts (10 microg) from mock- and HA-NDR1-transfected COS-1 cells were also immunoblotted with 12CA5 to verify equal expression levels of HA-NDR1 construct. For the analysis of phosphorylation status, 12CA5-immunoprecipitated HA-NDR1 (out of 100 microgram protein extract) was analysed by immunoblotting with phosphospecific antibodies directed against P-S281 or P-T444.

myc-hMOB1 = assay: Co-immunoprecipitation of HA-NDR and myc-hMOB1 from COS-1 cells; assay type: binding, human; conditions: COS1 cells cotransfected with HA-NDR and myc-hMOB1
Description: HA-tagged hNDR and myc-tagged hMOB1 were cotransfected in COS1 cells, which were stimulated with okadaic acid or solvent alone. After cell lysis and extract preparation, HA-NDR was immunoprecipitated and co-immunoprecipitated myc-hMOB1 detected or Myc-hMOB1 was immunoprecipitated and co-immunoprecipitated HA-NDR detected.
HA-NDR, wt and mutants, and myc-hMOB1 were cotransfected into COS-1 cells and the cells were treated with OA prior to lysis. HA-NDR was immunoprecipitated and the coimmunoprecipitated myc-hMOB1 detected. […] Furthermore, the two important in vivo phosphorylation sites of NDR, serine-281 in the activation segment and the hydrophobic motif site threonine-444 in the C-terminal regulatory domain were tested, as well as the threonine 74 site in the N-terminal regulatory domain, for their role in NDR-MOB interaction.
HA-NDR N-terminal point mutants and myc-mob1 were co-transfected into COS1 cells which were treated with OA prior to lysis. HA-NDR mutants were immunoprecipitated and coimmunoprecipitated myc-hMOB1 detected.
In this Example, the effect of treatment of COS1 cells with BAPTA-AM on the NDR-MOB Interaction was determined. HA-NDR and myc-MOB1 was cotransfected into COS1 cells and the cells were treated with BAPTA-AM and OA or the solvents alone prior to lysis. HA-NDR was immunoprecipitated and co-immunoprecipitated myc-MOB1 detected. The kinase activity of the HA-NDR immunoprecipitates was measured in a peptide kinase assay.

HA-NDR1 [3] = assay: HA-NDR1 kinase assay on 12CA5 immunoprecipitates from transfected, treated COS-1 cells; assay type: cell-based, human; set-up: dose or concentration left out as unconfirmed
HA-NDR2 = HA-NDR2 protein kinase activity after cell treatment with okadaic acid or solvent; assay type: cell-based, human; conditions: for activation of NDR2 mutant by OA: cell treatment with OA; for basal kinase activity of NDR2 mutant: solvent alone, compared with HA-NDR2-WT
Description: All other procedures (including bacterial expression, kinase assays, immunodetection and mass spectrometry) were carried out essentially as described in the Methodology section above.
To further examine this NDR2 mutants were created in which either Ser-282 or Thr-442 were replaced by an alanine. Additionally an in vitro phosphorylation site mutant T75A essentially as described above, and a kinase dead mutant K119A was created for Ndr2. The protein kinase activity of each of these mutants was measured following cell treatment with okadaic acid (OA) or solvent alone. HA-NDR2-WT was potently stimulated (˜10-fold) by OA.

NDR2 = assay: Western blot of NDR2 variants with phosphorylation site specific antibodies; assay type: cell-based, human
Source text: This was described above for the corresponding mutants of NDR1.

Row | Compound | Spec. Activity (NDR1 kinase activity) (HA-NDR1 [1]) | phosphorylation of HA-NDR1 on Ser281 (HA-NDR1 [2]) | phosphorylation of HA-NDR1 on Thr444 (HA-NDR1 [2]) | effect of cell treatment on NDR-MOB interaction (myc-hMOB1) | effect on okadaic acid-stimulated NDR1 activity (HA-NDR1 [3]) | stimulation of HA-NDR2-WT kinase activity (HA-NDR2; cell treatment with OA versus solvent alone) | phosphorylation of NDR2 on Ser282 (NDR2) | phosphorylation of NDR2 on T442 upon OA treatment (NDR2) | activation of NDR2 mutant by OA (HA-NDR2) | basal kinase activity of NDR2 mutant (HA-NDR2) | increase of Ser282 phosphorylation after OA treatment (NDR2)
1 | CC(=O)OCOC(=O)CN(CC(=O)OCOC(C)=O)c1ccccc1OCCOc1ccccc1N(CC(=O)OCOC(C)=O)CC(=O)OCOC(C)=O [BAPTA-AM, 1,2-bis (o-aminophenoxy) ethane-N,N,N′,N′-tetraacetic acid tetra (acetoxy-methyl)ester] | 0.2676 | declined almost to the baseline | declined almost to the baseline | reduction of the NDR-MOB interaction | dramatically reduced; also recorded: reduces OA induced NDR kinase activation | – | – | – | – | – | –
2 | C=C1[C@@H](O)[C@@H]2O[C@]3(CC[C@H](/C=C/[C@@H](C)[C@@H]4CC(C)=C[C@@]5(O[C@H](C[C@@](C)(O)C(=O)O)CC[C@H]5O)O4)O3)CC[C@H]2O[C@@H]1[C@@H](O)C[C@H](C)[C@H]1O[C@@]2(CCCCO2)CC[C@H]1C [okadaic acid, reference compound] | 10.142 | further enhanced | only became phosphorylated after okadaic acid treatment | dependent on stimulation of the cells with OA | – | ~10 fold | – | – | – | – | –
3 | C/C=C(/C)C(=O)O[C@H]1C(C)=C2[C@H]([C@@H]1OC(=O)CCCCCCC)[C@@](C)(OC(C)=O)C[C@H](OC(=O)CCC)[C@@]1(O)[C@H]2OC(=O)[C@@]1(C)O [thapsigargin] | – | rescued | rescued | – | rescued | – | – | – | – | – | –
4 | K119A: NDR2 kinase dead mutant K119A | – | – | – | – | – | – | not phosphorylated on S282 | becomes phosphorylated upon OA treatment | didn't show any activation by OA | nearly undetectable levels | –
5 | NDR2 wt: human NDR2 wild type (SEQ ID NO:3), HA-tagged | – | – | – | – | – | – | becomes phosphorylated on Ser282 | becomes phosphorylated upon OA treatment | – | – | increased after OA treatment
6 | S282A: NDR2 mutant, Ser-282 replaced by alanine | – | – | – | – | – | – | – | becomes phosphorylated upon OA treatment | still activated | markedly reduced basal activity | –
7 | T75A: NDR2 in vitro phosphorylation site mutant T75A | – | – | – | – | – | – | becomes phosphorylated on Ser282 | becomes phosphorylated upon OA treatment | still activated | markedly reduced basal activity | –
8 | T442A: NDR2 mutant, Thr-442 replaced by alanine | – | – | – | – | – | – | becomes phosphorylated on Ser282 | – | still activated | markedly reduced basal activity | increased after OA treatment
